Measurements reported in patent US4929626A, “α-substituted 4-(quinolin-2-yl-methoxy)phenylacetic acids and esters and lipoxygenase inhibition therewith” (Bayer Aktiengesellschaft, priority 1988, dated 1990).
Where a name gives a salt, the structure may show the parent alone.

Legend:
lipoxygenase = test: Lipoxygenase inhibition: release of leukotriene B4 (LTB4) by polymorphonuclear rat leukocytes (PMN) after Ca ionophore, reverse phase HPLC; assay type: cell-based
Method: (§1) The pharmacological activity data of the substances according to the invention are determined by the following method: As a measure of the lipoxygenase inhibition, the release of leukotriene B4 (LTB4) by polymorphonuclear rat leukocytes (PMN) was determined after addition of substances and Ca ionophore by means of reverse phase HPLC according to Borgeat, P. et al., Proc. Nat. Acad. Sci. 76, 2148-2152 (1979). The in vivo activity of the compounds was determined using the mouse ear inflammation model according to Young, J. M. et al., J. of Investigative Dermatology 82, 367-371 (1984).

mouse ear inflammation = test: Mouse ear inflammation model (in vivo activity); conditions: 100 mg/kg p.o.
Method: as §1

Row | Compound | IC50 (lipoxygenase) | Inhibition of inflammation % (mouse ear inflammation)
1 | CCCCCC(O)c1cccc(OCc2ccc3ccccc3n2)c1 (stereo not shown) [2-[3-(1-hydroxyhexyl)phenoxymethyl]quinoline, reference compound] | 200 nM | 24%
2 | CCCCCC(C(=O)OC)c1ccc(OCc2ccc3ccccc3n2)cc1 (stereo not shown) [Example 10, Methyl 2-[4-(quinolin-2-yl-methoxy)phenyl]heptanoate] | – | 61%
3 | C/C=C/CC(C(=O)OC)c1ccc(OCc2ccc3ccccc3n2)cc1 (stereo not shown) [Example 12, Methyl E-2-[4-(quinolin-2-yl-methoxy)phenyl]-4-hexenoate] | – | 59%
4 | CCCCC(C(=O)O)c1ccc(OCc2ccc3ccccc3n2)cc1 (stereo not shown) [Example 20, 2-[4-(Quinolin-2-yl-methoxy)phenyl]caproic acid] | 55 nM | 68%
5 | CC(C)=CCC(C(=O)O)c1ccc(OCc2ccc3ccccc3n2)cc1 (stereo not shown) [Example 22, 2-[4-(Quinolin-2-yl-methoxy)phenyl]-5-methyl-4-hexenoic acid] | – | 77%
6 | CCCCC(C(=O)OCC(=O)OC)c1ccc(OCc2ccc3ccccc3n2)cc1 (stereo not shown) [Example 27, Methoxycarbonylmethyl 2-[4-(quinolin-2-yl-methoxy)phenyl]caproate hydrochloride] | 63 nM | –
7 | CCCCC(C(=O)OCC(=O)O)c1ccc(OCc2ccc3ccccc3n2)cc1 (stereo not shown) [Example 29, Carboxymethyl 2-[4-(quinolin-2-yl-methoxy)phenyl]caproate] | 55 nM | 72%
